Laboratory results taken from US5095038A, “Carbocyclic compounds useful as leukotriene antagonists” (ICI Americas Inc., priority 1989, dated 1992).

Molecular target: T1, LTD4 /E4 receptors (Cavia porcellus, UniProt Q2NNR5)
T1 construct: membrane fractions, containing the LTD4 /E4 receptors, are prepared from guinea-pig lung parenchyma; from tissue; host or cells: guinea-pig lung parenchyma membrane fractions
T1 sequence (Q2NNR5 1-340): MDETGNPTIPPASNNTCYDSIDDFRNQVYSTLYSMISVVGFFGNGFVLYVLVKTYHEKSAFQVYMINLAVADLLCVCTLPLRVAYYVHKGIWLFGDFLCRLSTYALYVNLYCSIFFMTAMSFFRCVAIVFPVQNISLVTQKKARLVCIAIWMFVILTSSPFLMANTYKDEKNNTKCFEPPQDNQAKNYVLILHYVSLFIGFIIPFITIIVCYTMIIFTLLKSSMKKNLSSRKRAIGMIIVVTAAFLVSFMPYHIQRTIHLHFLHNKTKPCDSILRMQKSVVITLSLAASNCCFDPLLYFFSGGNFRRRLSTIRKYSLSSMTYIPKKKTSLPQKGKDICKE
Experiment: receptor-ligand binding assay (3H-LTD4)
Details: membrane fractions from guinea-pig lung parenchyma, 1nM 3H-LTD4, 30 minutes at 22° C.; Ki from IC50 by Cheng-Prusoff
Description: According to this procedure, membrane fractions, containing the LTD4 /E4 receptors, are prepared from guinea-pig lung parenchyma and incubated for 30 minutes at 22° C. with 1nM ^3 H-LTD4 in the absence or presence of tested antagonist. Specific binding, determined under conditions that prevent enzymatic metabolism of ^3 H-LTD4, is the net result of total ^3 H-LTD4 binding minus nonspecific binding determined in the presence of 1-2000 fold excess unlabelled LTD . Each assay is done in duplicate and results (Ki values) are typically a mean of several such determinations in individual receptor batches.
The % inhibition by a tested antagonist, relative to control binding (vehicle alone), is expressed as a fraction of log[antagonist] concentration (in molar units) and the half-maximal inhibition (IC50) determined by computerized non-linear least-square analysis. The binding constant (Ki) is then calculated from IC50 by the Cheng-Prusoff equation: [formula] where [L] is ^3 H-LTD4 concentraton and Kd is the affinity constant of LTD4 to this receptor, determined separately for each batch. (Biochem. Pharmacol. 22: 3099-3108, 1973).

Ki: 3.16 nM
SMILES: CCC(C)CNC(=O)c1ccc2cccc(Cc3ccc(C(=O)NS(=O)(=O)c4ccccc4C)cc3OC)c2c1 (stereo not shown) [Example 10, 3-Methoxy-4-[7-(2-methylbutylcarbamoyl)naphth-1-ylmethyl]-N-(2-methylphenylsulfonyl)benzamide]
